Laboratory results as given in PMC3280214, “Structure Based Discovery of Small Molecules to Regulate the Activity of Human Insulin Degrading Enzyme” (PLoS ONE, 2012).

Molecular target: T1, double mutant IDE (Gln363Ala, His332Ala) (Homo sapiens, UniProt P14735, H332A/Q363A)
T1 construct: made in house; host or cells: E. coli (BL21 inferred, as for the wild type)
T1 sequence (P14735 1-1019 H332A/Q363A): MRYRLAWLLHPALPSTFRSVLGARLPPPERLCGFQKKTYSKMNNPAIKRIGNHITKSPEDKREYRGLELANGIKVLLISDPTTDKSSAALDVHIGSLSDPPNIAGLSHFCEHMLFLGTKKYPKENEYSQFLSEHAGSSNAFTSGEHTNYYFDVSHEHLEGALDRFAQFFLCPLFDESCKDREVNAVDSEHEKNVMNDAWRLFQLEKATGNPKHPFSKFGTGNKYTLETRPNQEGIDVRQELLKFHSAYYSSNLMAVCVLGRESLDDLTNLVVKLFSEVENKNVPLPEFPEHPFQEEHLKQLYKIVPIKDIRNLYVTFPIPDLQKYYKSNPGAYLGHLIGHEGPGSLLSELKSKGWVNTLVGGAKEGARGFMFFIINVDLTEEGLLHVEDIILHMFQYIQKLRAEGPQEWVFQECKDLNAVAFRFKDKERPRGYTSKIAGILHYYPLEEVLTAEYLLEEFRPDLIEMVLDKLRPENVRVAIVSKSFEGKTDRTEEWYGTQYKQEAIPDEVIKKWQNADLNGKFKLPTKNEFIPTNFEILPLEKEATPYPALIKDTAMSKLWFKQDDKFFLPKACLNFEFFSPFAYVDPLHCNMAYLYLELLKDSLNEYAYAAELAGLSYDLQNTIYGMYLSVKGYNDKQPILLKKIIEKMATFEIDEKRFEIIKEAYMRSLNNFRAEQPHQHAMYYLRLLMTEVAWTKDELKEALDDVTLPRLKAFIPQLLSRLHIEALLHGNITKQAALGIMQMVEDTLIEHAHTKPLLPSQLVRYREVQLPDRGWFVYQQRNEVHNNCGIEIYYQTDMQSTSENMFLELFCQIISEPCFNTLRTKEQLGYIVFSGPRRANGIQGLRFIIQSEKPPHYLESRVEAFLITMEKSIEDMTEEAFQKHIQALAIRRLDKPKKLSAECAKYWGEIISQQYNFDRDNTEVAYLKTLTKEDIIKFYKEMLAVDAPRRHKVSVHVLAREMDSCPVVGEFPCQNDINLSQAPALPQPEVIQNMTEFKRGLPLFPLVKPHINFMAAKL
Assay: FITC-insulin-mAb degradation by double mutant IDE (Gln363Ala, His332Ala)
Assay type: biochemical
Settings: 20 µM D10
Source text: Since D10 has been found as the strongest activator of IDE towards the proteolysis of insulin, we analyzed the binding site of the compound D10 for the further analysis. According to the computational results, D10 binds to Gln363 at the IDE exosite and His332 (Fig. 1D). We carried out site-directed mutagenesis by replacing these amino acids into Ala in order to verify that D10 indeed binds to this region via these amino acids. We first mutated Gln363 to Ala and then expressed and purified mutant protein through nickel resin. The effect of D10 on the proteolytic activity of mutant IDE (Gln363Ala) was measured towards FITC-insulin-mAb degradation. […] The activation was about 49-fold in the presence of D10 with wild type IDE (Fig. 2B). Although mutant IDE activity was less responsive to D10 compound compared to wild type IDE, it appeared as if D10 were interacting with IDE through […] and could enhance the activity of mutant IDE. […]
The utility of these novel compounds were tested on degradation of insulin by IDE. […] The proteolysis of insulin by IDE was monitored by measuring the changes in fluorescence, where the reaction was carried out with 100 nM of FITC- insulin-mAb and IDE (80 ng) in 100 µl KH2PO4 buffer at a pH of 7.3. […] The increase in fluorescence was monitored by using Fluoroskan Ascent FL microplate reader (Thermo).

Structure (SMILES): Cc1nn(-c2ccccc2)c2nc(-c3cccc([N+](=O)[O-])c3)n3c4ccccc4nc3c2c1=O [Compound D10]
- binding to exosite of double mutant IDE: could not bind to IDE exosite
